From patent publication EP1673349B1, “BENZIMIDAZOLE DERIVATIVES: PREPARATION AND PHARMACEUTICAL APPLICATIONS” (priority 2003, dated 2005)
Like-named read-outs stand apart in the source and are kept apart here. Blank lines part the entries; values can stand above or below the compound they belong to.

Columns and labels:
[1] = molecular target: HDAC8 enzyme; assay: In vitro HDAC assay (BIOMOL fluorescent-based HDAC activity assay), HDAC8; format: biochemical, human; settings: Table 3; read-out: HDAC8 Enzyme Activity IC50
Description: (§1) Expression of GST-HDAC1 or HTGST-HDAC8 was done by infecting SF9 cells (Invitrogen Pte Ltd) with pDEST20-HDAC1 or pFASTBAC-GST-HDAC8 baculovirus at MOI=1 for 48 h. Soluble cell lysate was incubated with pre-equilibrated Glutathione Sepharose 4B beads (Amersham) at 4°C for 2 h. The beads were washed with PBS buffer for 3 times. The GST-HDAC1 protein or GST-HDAC8 protein was eluted by elution buffer containing 50 mM Tris, pH8.0, 150mM NaCl, 1% Triton X-100 and 10mM or 20mM reduced Glutathione. The purified GST-HDAC1 protein or purified GST-HDAC8 protein was dialyzed with HDAC storage buffer containing 10mM Tris, pH7.5, 100mM NaCl and 3mM MgCl2. 20% Glycerol was added to purified GST-HDAC1 protein or purified GST-HDAC8 before storage at -80°C.
(§2) The assay has been carried, out in 96 well format and the BIOMOL fluorescent-based HDAC activity assay has been applied. […] Flur de lys Developer was added and the reaction was incubated for 10 min. Briefly, deacetylation of the substrate sensitizes it to the developer, which then generates a fluorophore (symbol). The fluorophore is excited with 360 nm light and the emitted light (460 nm) is detected on a fluorometric plate reader (Tecan Ultra Microplate detection system, Tecan Group Ltd.).
(§3) The analytical software, Prism 3.0 has been used to generate IC50 from a series of data.

[2] = tested on: Colo205; assay: Cell-based proliferation assay (cyquant), Colo205; parameters: species or system human; settings: Table 4, 96 h treatment;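 note: Colo205 cells exposed for 96 h to a range of compound concentrations, growth read by CyQUANT, GI50 taken from plotted dose-response curves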
Description: (§4) Human colon cancer cell lines (Colo205 and HCT116), human breast cancer cell lines (MDA-MB435 and MDA-MB231), and human lung cancer cell line (A549) were obtained from ATCC. […] MDA-MB435 cells were cultivated in DMEM containing 2 mM L-Glutamine, 5% FBS. HCT116 cells were cultivated in IMEM containing 2 mM L-Glutamine, 5% FBS. A549 and Colo205 cells were seeded in 96-wells plate at 2000 and 5000 cells per well respectively. MDA-MB435, HCT116, MDA-MB231 cells were seeded in 96-wells plate at 6000 cells per well. The plates were incubated at 37°C, 5% CO2, for 24 h. Cells, were treated with compounds at various concentration for 96 h. Cell growth was then monitored using cyquant cell proliferation assay (Invitrogen Pte Ltd). Dose response curves were plotted to determine GI50 values for the compounds using XL-fist.

[3] = molecular target: HDAC1 enzyme (Homo sapiens, UniProt Q13547); assay: In vitro HDAC assay (BIOMOL fluorescent-based HDAC activity assay), HDAC1; format: biochemical; settings: Table 3; read-out: HDAC1 Enzyme Activity IC50
Description: as §1, §2, §3

[4] = tested on: MDA-MB435; assay: Cell-based proliferation assay (cyquant), MDA-MB435; parameters: species or system human; settings: Homo sapiens, MDA-MB-435; Table 4; 96 h treatment;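 note: GI50 taken from dose–response curves over a range of compound concentrations, with cell growth quantified by the CyQUANT proliferation assay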
Description: as §4

HDAC1 enzyme, sequence (Q13547 whole entry): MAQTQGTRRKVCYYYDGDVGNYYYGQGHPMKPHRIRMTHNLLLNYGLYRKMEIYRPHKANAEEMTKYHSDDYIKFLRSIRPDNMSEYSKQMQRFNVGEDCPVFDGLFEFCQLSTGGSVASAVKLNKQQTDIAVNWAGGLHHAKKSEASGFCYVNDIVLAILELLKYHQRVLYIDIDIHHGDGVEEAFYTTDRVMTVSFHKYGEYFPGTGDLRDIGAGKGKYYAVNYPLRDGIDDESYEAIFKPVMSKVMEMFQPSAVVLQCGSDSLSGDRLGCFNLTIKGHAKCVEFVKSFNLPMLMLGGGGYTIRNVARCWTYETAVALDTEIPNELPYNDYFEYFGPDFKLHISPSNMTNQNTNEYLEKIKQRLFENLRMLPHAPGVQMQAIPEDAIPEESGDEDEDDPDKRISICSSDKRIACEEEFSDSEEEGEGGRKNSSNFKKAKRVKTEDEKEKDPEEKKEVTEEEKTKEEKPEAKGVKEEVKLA

Compound: O=C(/C=C/c1ccc2c(c1)nc(CCc1ccccc1)n2CCc1ccccn1)NO [Compound 18]
IC50 [1]: 0.29 µM
IC50 [3]: 0.438 µM

Compound: O=C(/C=C/c1ccc2c(c1)nc(COCc1ccccc1)n2CCc1cccnc1)NO [Compound 28]
IC50 [1]: 0.3 µM
IC50 [3]: 0.206 µM

Compound: CC(C)Cc1nc2cc(CCC(=O)NO)ccc2n1CCCO [Compound 29, N-Hydroxy-3-[1-(3-Hydroxy-propyl)-2-isobutyl-1H-benzimidazol-5-yl]-propionamide]
IC50 [1]: 34 µM
IC50 [3]: 49.1 µM

Compound: CCCn1cnc2cc(/C=C/C(=O)NO)ccc21 [Compound 37, N-Hydroxy-3-(1-propyl-1H-benzimidazol-5-yl)-acrylamide]
GI50 [4]: 7.9 µM
GI50 ([2]; Homo sapiens, COLO 205): 7.82 µM

Compound: CCn1cnc2cc(/C=C/C(=O)NO)ccc21 [Compound 39, N-Hydroxy-3-(1-Ethyl-1H-benzimidazol-5-yl)-acrylamide]
GI50 [4]: 12.1 µM
GI50 ([2]; Homo sapiens, COLO 205, 96 h): 11.7 µM

Compound: O=C(NO)c1ccc2c(c1)nc(CCc1ccccc1)n2CCCO [Compound 40, 1-(3-Hydroxy-prorpyl)-2-phenethyl-1H-benzimidazol-5-carboxylic acid hydroxyamide]
IC50 [1]: 0.441 µM
IC50 [3]: 3.3 µM

Compound: CC(Cc1nc2cc(/C=C/C(=O)NO)ccc2n1CCc1cccnc1)c1ccccc1 (stereo not drawn) [Compound 41]
IC50 [1]: 0.159 µM
IC50 [3]: 0.195 µM

Compound: O=C(/C=C/c1ccc2c(c1)nc(CCc1ccccc1)n2CCCn1ccnc1)NO [Compound 56, N-Hydroxy-3-[1-(-3-imidazol-1-yl-propyl)-2-phenethyl-1H-benzimidazol-5-yl]-acrvlamide]
IC50 [3]: 0.158 µM

Compound: Cn1c(CN(Cc2ccccc2)Cc2ccccc2)nc2cc(/C=C/C(=O)NO)ccc21 [Compound 61]
IC50 [3]: 0.196 µM

Compound: CCN(CC)CCn1c(CCc2ccccc2)nc2cc(/C=C/C(=O)NO)ccc21 [Compound 66, N-Hydroxy-3-[1-(2-diethylamino-ethyl)-2-phenethyl-1H-benzimidazol-5-yl]-acrylamide]
IC50 [1]: 0.255 µM
GI50 ([2]; Homo sapiens, COLO 205, 96 h): 0.22 µM

Compound: CCn1c(CN(Cc2ccccc2)Cc2ccccc2)nc2cc(/C=C/C(=O)NO)ccc21 [Compound 68]
IC50 [3]: 0.294 µM

Compound: CCn1c(CCNS(=O)(=O)c2ccccc2)nc2cc(/C=C/C(=O)NO)ccc21 [Compound 71]
IC50 [3]: 0.167 µM

Compound: O=C(/C=C/c1ccc2c(c1)nc(CCc1ccccc1)n2C1CCN(Cc2ccccc2)CC1)NO [Compound 76]
IC50 [3]: 1.03 µM

Compound: CN1CCN(CCCn2c(CCc3ccccc3)nc3cc(/C=C/C(=O)NO)ccc32)CC1 [Compound 81]
IC50 [3]: 1.6 µM

Compound: O=C(/C=C/c1ccc2c(c1)nc(CCc1ccccc1)n2CCCN1CCCC1)NO [Compound 82, N-Hydroxy-3-[2-phenethyl-1-(3-pyrrolidin-1-yl-propyl)-1H-benzimidazol-5-yl]-acrylamide]
GI50 ([2]; Homo sapiens, COLO 205, 96 h): 0.72 µM

Compound: CN(C)CC(C)(C)Cn1c(CCCc2ccccc2)nc2cc(/C=C/C(=O)NO)ccc21 [Compound 83]
IC50 [3]: 0.071 µM

Compound: CN(C)CC(C)(C)Cn1c(CCc2cccnc2)nc2cc(/C=C/C(=O)NO)ccc21 [Compound 86, N-Hydroxy-3-[1-(3-Dimethylamino-2,2-dimethyl-propyl)-2-(2-pyridin-3-yl-ethyl)-1H-benzimidazol-5-yl]acrylamide]
GI50 ([2]; Homo sapiens, COLO 205): 13.1 µM

Compound: COc1cc(Cn2c(CCc3ccccc3)nc3cc(C4CC4C(=O)NO)ccc32)cc(OC)c1OC (stereo not drawn) [Compound 88, 2-[2-Phenethyl-1-(3,4,5-trimethoxy-benzyl)-1H-benzimidazol-5-yl]-cyclopropanecarboxylic acid hydroxyamide]
GI50 ([2]; Homo sapiens, COLO 205, 96 h): 1.26 µM
IC50 [3]: 0.297 µM

Compound: O=C(/C=C/c1ccc2c(c1)ncn2CCN1CCCCC1)NO [Compound 90]
IC50 [3]: 0.166 µM

Now from value to compound:

IC50 [1]: 0.401 µM
GI50 ([2]; Homo sapiens, COLO 205): > 100 µM
Compound: COc1ccc(-c2nc3cc(/C=C/C(=O)NO)ccc3n2CCO)cc1 [Compound 5, N-Hydroxy-3-[1-(2-hydroxy-ethyl)-2-(4-methoxy-phenyl)-1H-benzimidazole-5-yl]-acrylamide]

IC50 [1]: 0.454 µM
IC50 [3]: 0.286 µM
Compound: O=C(/C=C/c1ccc2c(c1)nc(CCc1ccccc1)n2CC(O)CO)NO (stereo not drawn) [Compound 8]

IC50 [1]: 0.883 µM
Compound: O=C(/C=C/c1ccc2c(c1)nc(-c1ccncc1)n2CCO)NO [Compound 10, N-Hydroxy-3-[1-(2-hydroxy-ethyl)-2-(4-pyridyl)-1H-benzimidazol-5-yl]-acrylamide]

IC50 [1]: 0.141 µM
IC50 [3]: 0.385 µM
Compound: O=C(/C=C/c1ccc2c(c1)nc(-c1ccccn1)n2CCCO)NO [Compound 13, N-Hydroxy-3-[1-(3-hydroxy-propyl)-2-(2-pyridyl)-1H-benzimidazol-5-yl]-acylamide]

IC50 [1]: 0.313 µM
IC50 [3]: 0.206 µM
Compound: COCCCn1c(CCc2ccccc2)nc2cc(/C=C/C(=O)NO)ccc21 [Compound 15]

IC50 [1]: 0.234 µM
IC50 [3]: 1.33 µM
Compound: CC(C)Cc1nc2cc(/C=C/C(=O)NO)ccc2n1CCc1ccccn1 [Compound 22]

GI50 [4]: 6.67 µM
GI50 ([2]; Homo sapiens, COLO 205, 96 h): 8.79 µM
Compound: O=C(/C=C/c1ccc2c(c1)nc(CCc1ccccc1)n2CCc1ccccc1)NO [Compound 26, N-Hydroxy-3-(1,2-Diphenethyl-1H-benzimidazol-5-yl]-acylamide]

IC50 [1]: 1.89 µM
IC50 [3]: 2.21 µM
Compound: O=C(O)CCn1c(CCc2ccccc2)nc2cc(/C=C/C(=O)NO)ccc21 [Compound 32, 3-[5-(2-Hydrocarbamoyl-vinyl)-2-phenethyl-benzimidazol-1-yl]-propionic acid]

IC50 [1]: 0.846 µM
Compound: CC(C)Cc1nc2cc(/C=C/C(=O)NO)ccc2n1Cc1ccccc1 [Compound 34, N-Hydroxy-3-(1-Benzyl-2-isobutyl-1H-benzimidazol-5-yl)-acrylamide]

GI50 [4]: 1.53 µM
GI50 ([2]; Homo sapiens, COLO 205, 96 h): 1.47 µM
Compound: CCn1c(CCc2ccccc2)nc2cc(/C=C/C(=O)NO)ccc21 [Compound 38, N-Hydroxy-3-(1-Ethyl-2-phenethyl-1H-benzimidazol-5-yl)-acrylamide]

IC50 [3]: 1.67 µM
Compound: CC(C)c1nc2cc(/C=C/C(=O)NO)ccc2n1CCCO [Compound 46]

IC50 [3]: 0.234 µM
Compound: COc1ccc(CNCc2nc3cc(/C=C/C(=O)NO)ccc3n2C)cc1 [Compound 62]

GI50 ([2]; Homo sapiens, COLO 205, 96 h): 2 µM
Compound: CN(C)CCCn1c(CCc2ccccc2)nc2cc(/C=C/C(=O)NO)ccc21 [Compound 63, N-Hydroxy-3-[1-(3-dimethylamino-propyl)-2-phenethyl-1H-benzimidazol-5-yl]-acrylamide]

IC50 [3]: 0.146 µM
Compound: Cn1c(CNC(=O)Cc2ccc(F)cc2)nc2cc(/C=C/C(=O)NO)ccc21 [Compound 69]

GI50 ([2]; read-out: GI50 (Colo 205)): 2.9 µM
IC50 [3]: 0.923 µM
Compound: CCn1c(CCNC(=O)Cc2ccccc2)nc2cc(/C=C/C(=O)NO)ccc21 [Compound 70]

IC50 [3]: 0.56 µM
Compound: CCn1c(CCNC(=O)COc2ccccc2)nc2cc(/C=C/C(=O)NO)ccc21 [Compound 73]

GI50 ([2]; Homo sapiens, COLO 205): 2.07 µM
Compound: CCn1c(CCNCc2ccccc2)nc2cc(/C=C/C(=O)NO)ccc21 [Compound 74, N-Hydroxy-3-[2-(2-benzylamino-ethyl)-1-ethyl-1H-benzimidazol-5-yl]-acrylamide]

GI50 ([2]; read-out: GI50 (Colo 205)): 2.88 µM
Compound: CC(C)(C)Cn1c(CCc2ccccc2)nc2cc(/C=C/C(=O)NO)ccc21 [Compound 75]

IC50 [3]: 0.57 µM
Compound: O=C(/C=C/c1ccc2c(c1)nc(CCc1ccccc1)n2CCO)NO [Compound 77]

IC50 [3]: > 100 µM
Compound: O=C(/C=C/c1ccc2c(c1)nc(CCc1ccccc1)n2CCCCCO)NO [Compound 78]

IC50 [3]: 1.26 µM
Compound: C=CCn1c(CCc2ccccc2)nc2cc(/C=C/C(=O)NO)ccc21 [Compound 79]

IC50 [3]: 1.69 µM
Compound: CC(C)OCCCn1c(CCc2ccccc2)nc2cc(/C=C/C(=O)NO)ccc21 [Compound 80]

IC50 [3]: 0.054 µM
Compound: CN(C)CC(C)(C)Cn1c(CCc2ccc(F)cc2)nc2cc(/C=C/C(=O)NO)ccc21 [Compound 84]
